Values joined by “and” are separate entries in the source; they are usually repeats but may differ in a detail not shown here. Equal values may be shown once.
Tests used:
[1] = tested on: MDA-MB-231 cells; assay: Transcriptional profiling, Human Tumor Metastasis RT2 Profiler PCR Array; type: cell-based; settings: 100 ng/mL, 5 hrs
Procedure: RNA was harvested from 10×10^6 MDA-MB-231 cells that were mock treated or treated with 100 ng/mL cmvIL-10 or hIL-10 for 5 hrs using the RNeasy Midi Kit and RNAse-Free DNase set (Qiagen, Valencia, Calif.). From the isolated RNA, cDNA was prepared using the RT^2 First Strand Kit (SA Biosciences, Frederick, Md.) and subsequently loaded into a 96-well breast cancer metastasis profiler PCR array (PAHS-028ZD) with system RT^2 SYBR Green Mastermix (SA Biosciences). The plates were run using the CFX96 Real-Time system cycler (BioRad, Hercules, Calif.) with the following amplification program: 95° C. for 10 min, 95° C. for […] with a slow ramp rate for 1.0 c/sec and 60° C. for 1 min. The data from three biological replicates for each treatment was analyzed by the ΔΔCT method according to manufacturer's instructions using the RT^2 profiler PCR array data analysis program located on the SABiosciences web portal and is reported as fold change relative to control.

[2] = tested on: PAI-1; assay: PAI-1 ELISA on culture supernatants; type: cell-based, human; settings: 10 ng/ml, after 24 hours, maintained over 72 hours
Procedure: (§1) DuoSet ELISA kits (R&D Systems) were used to quantify uPAR, PAI-1, and MMP-3. For uPAR and PAI-1 measurement, MDA cells were seeded in triplicate in 96-well plate at 5.0×10^4 cell/mL density with complete L-15 media and treated with 10 ng/mL of either cmvIL-10 or hIL-10 for the indicated times and supernatants were collected daily. The ELISA was carried out on supernatants according to manufacturer's instructions using and following the addition of substrate and stop solution, absorbance of the plate was measured at 450 nm using a Dynex Opsys MR microplate reader. Sample concentrations were interpolated from a standard curve using linear regression analysis. For cell-associated MMP-3, MDA cells were seeded in 96-well plates and treated with cmvIL-10 as above. Cells were treated with cell lysis buffer (150 mM NaCl, 20 mM HEPES, 0.5% Triton-X-100, 1.0 mM NaOV4, 1.0 mM EDTA, 0.1% NaN3) supplemented with 1× protease inhibitors (Calbiochem, EMD Chemicals, San Diego Calif.) and were collected daily for the indicated time points. The lysates were evaluated for MMP-3 according to the manufacturer's instructions (R&D Systems).

[3] = tested on: uPAR; assay: uPAR ELISA on culture supernatants; type: cell-based, human; settings: 10 ng/ml
Procedure: as §1

hIL-10: purified recombinant human interleukin-10 from R&D Systems
Fold Change vs. Mock, ACTB ([1]; ACTB mRNA): 1.3287 fold
Fold Change vs. Mock, APC ([1]; APC mRNA): 1.0052 fold
Fold Change vs. Mock, B2M ([1]; B2M mRNA): 0.9897 fold
Fold Change vs. Mock, BRMS1 ([1]; BRMS1 mRNA): 1.1154 fold
Fold Change vs. Mock, CCL7 ([1]; CCL7 mRNA): 0.9314 fold
Fold Change vs. Mock, CD44 ([1]; CD44 mRNA): 1.3402 fold
Fold Change vs. Mock, CD82 ([1]; CD82 mRNA): 1.1019 fold
Fold Change vs. Mock, CDH1 ([1]; CDH1 mRNA): 0.7618 fold
Fold Change vs. Mock, CDH6 ([1]; CDH6 mRNA): 0.9314 fold
Fold Change vs. Mock, CDH11 ([1]; CDH11 mRNA): 1.0425 fold
Fold Change vs. Mock, CDKN2A ([1]; CDKN2A mRNA): 0.9314 fold
Fold Change vs. Mock, CHD4 ([1]; CHD4 mRNA): 1.1115 fold
Fold Change vs. Mock, COL4A2 ([1]; COL4A2 mRNA): 1.51 fold and 1.5131 fold
Fold Change vs. Mock, CST7 ([1]; CST7 mRNA): 0.8858 fold
Fold Change vs. Mock, CTBP1 ([1]; CTBP1 mRNA): 0.9576 fold
Fold Change vs. Mock, CTNNA1 ([1]; CTNNA1 mRNA): 0.9428 fold
Fold Change vs. Mock, CTSK ([1]; CTSK mRNA): 0.8482 fold
Fold Change vs. Mock, CTSL1 ([1]; CTSL1 mRNA): 0.8981 fold
Fold Change vs. Mock, CXCL12 ([1]; CXCL12 mRNA): 0.9314 fold
Fold Change vs. Mock, CXCR4 ([1]; CXCR4 mRNA): 0.8751 fold
Fold Change vs. Mock, DENR ([1]; DENR mRNA): 0.9626 fold
Fold Change vs. Mock, EPHB2 ([1]; EPHB2 mRNA): 0.9028 fold
Fold Change vs. Mock, ETV4 ([1]; ETV4 mRNA): 1.0175 fold
Fold Change vs. Mock, EWSR1 ([1]; EWSR1 mRNA): 1.3104 fold
Fold Change vs. Mock, FAT1 ([1]; FAT1 mRNA): 1.4414 fold
Fold Change vs. Mock, FGFR4 ([1]; FGFR4 mRNA): 0.9693 fold
Fold Change vs. Mock, FLT4 ([1]; FLT4 mRNA): 1.0317 fold
Fold Change vs. Mock, FN1 ([1]; FN1 mRNA): 1.2100 fold
Fold Change vs. Mock, FXYD5 ([1]; FXYD5 mRNA): 1.0479 fold
Fold Change vs. Mock, GAPDH ([1]; GAPDH mRNA): 1.2121 fold
Fold Change vs. Mock, GNRH1 ([1]; GNRH1 mRNA): 1.1647 fold
Fold Change vs. Mock, HGF ([1]; HGF mRNA): 0.9314 fold
Fold Change vs. Mock, HPRT1 ([1]; HPRT1 mRNA): 1.3827 fold
Fold Change vs. Mock, HPSE ([1]; HPSE mRNA): 0.8645 fold
Fold Change vs. Mock, HRAS ([1]; HRAS mRNA): 1.0625 fold
Fold Change vs. Mock, HTATIP2 ([1]; HTATIP2 mRNA): 0.9138 fold
Fold Change vs. Mock, IGF1 ([1]; IGF1 mRNA): 0.9794 fold
Fold Change vs. Mock, IL1B ([1]; IL1B mRNA): 0.6771 fold
Fold Change vs. Mock, IL18 ([1]; IL18 mRNA): 0.7526 fold
Fold Change vs. Mock, ITGA7 ([1]; ITGA7 mRNA): 0.8796 fold
Fold Change vs. Mock, ITGB3 ([1]; ITGB3 mRNA): 1.0317 fold
Fold Change vs. Mock, KISS1R ([1]; KISS1R mRNA): 0.9314 fold
Fold Change vs. Mock, KISS1 ([1]; KISS1 mRNA): 1.5856 fold
Fold Change vs. Mock, KRAS ([1]; KRAS mRNA): 0.9931 fold
Fold Change vs. Mock, MCAM ([1]; MCAM mRNA): 1.0353 fold
Fold Change vs. Mock, MDM2 ([1]; MDM2 mRNA): 0.9461 fold
Fold Change vs. Mock, MET ([1]; MET mRNA): 1.1173 fold
Fold Change vs. Mock, METAP2 ([1]; METAP2 mRNA): 1.0736 fold
Fold Change vs. Mock, MGAT5 ([1]; MGAT5 mRNA): 1.3590 fold
Fold Change vs. Mock, MMP2 ([1]; MMP2 mRNA): 1.5157 fold
Fold Change vs. Mock, MMP3 ([1]; MMP3 mRNA): 0.8080 fold
Fold Change vs. Mock, MMP7 ([1]; MMP7 mRNA): 0.8123 fold
Fold Change vs. Mock, MMP9 ([1]; MMP9 mRNA): 0.9347 fold
Fold Change vs. Mock, MMP10 ([1]; MMP10 mRNA): 0.6866 fold
Fold Change vs. Mock, MMP11 ([1]; MMP11 mRNA): 1.0867 fold
Fold Change vs. Mock, MMP13 ([1]; MMP13 mRNA): 0.9777 fold
Fold Change vs. Mock, MTA1 ([1]; MTA1 mRNA): 0.9395 fold
Fold Change vs. Mock, MTSS1 ([1]; MTSS1 mRNA): 1.2397 fold
Fold Change vs. Mock, MYC ([1]; MYC mRNA): 0.7423 fold
Fold Change vs. Mock, MYCL1 ([1]; MYCL1 mRNA): 1.0644 fold
Fold Change vs. Mock, NF2 ([1]; NF2 mRNA): 1.3496 fold
Fold Change vs. Mock, NME1 ([1]; NME1 mRNA): 1.1000 fold
Fold Change vs. Mock, NME4 ([1]; NME4 mRNA): 0.9965 fold
Fold Change vs. Mock, NR4A3 ([1]; NR4A3 mRNA): 0.8151 fold
Fold Change vs. Mock, PLAUR ([1]; PLAUR (uPAR) mRNA): 1.87 fold and 1.8628 fold
Fold Change vs. Mock, PNN ([1]; PNN mRNA): 1.2901 fold
Fold Change vs. Mock, PTEN ([1]; PTEN mRNA): 0.8645 fold
Fold Change vs. Mock, RB1 ([1]; RB1 mRNA): 0.9298 fold
Fold Change vs. Mock, RORB ([1]; RORB mRNA): 0.8827 fold
Fold Change vs. Mock, RPLP0 ([1]; RPLP0 mRNA): 1.0000 fold
Fold Change vs. Mock, RPSA ([1]; RPSA mRNA): 1.0886 fold
Fold Change vs. Mock, SERPINE1 ([1]; SERPINE1 (PAI-1) mRNA): 3.12 fold and 3.0262 fold
Fold Change vs. Mock, SET ([1]; SET mRNA): 0.9234 fold
Fold Change vs. Mock, SMAD2 ([1]; SMAD2 mRNA): 0.7859 fold
Fold Change vs. Mock, SMAD4 ([1]; SMAD4 mRNA): 0.8279 fold
Fold Change vs. Mock, SRC ([1]; SRC mRNA): 0.9760 fold
Fold Change vs. Mock, SSTR2 ([1]; SSTR2 mRNA): 0.7120 fold
Fold Change vs. Mock, SYK ([1]; SYK mRNA): 0.9314 fold
Fold Change vs. Mock, TCF20 ([1]; TCF20 mRNA): 0.9676 fold
Fold Change vs. Mock, TGEB1 ([1]; TGEB1 (Transforming growth factor, beta 1) mRNA): 0.9931 fold
Fold Change vs. Mock, TIMP2 ([1]; TIMP2 mRNA): 0.8601 fold
Fold Change vs. Mock, TIMP3 ([1]; TIMP3 mRNA): 0.7631 fold
Fold Change vs. Mock, TIMP4 ([1]; TIMP4 mRNA): 0.9122 fold
Fold Change vs. Mock, TNFSF10 ([1]; TNFSF10 mRNA): 0.7955 fold
Fold Change vs. Mock, TP53 ([1]; TP53 mRNA): 0.8873 fold
Fold Change vs. Mock, TRPM1 ([1]; TRPM1 mRNA): 0.9314 fold
Fold Change vs. Mock, TSHR ([1]; TSHR mRNA): 0.9314 fold
Fold Change vs. Mock, VEGFA ([1]; VEGFA mRNA): 0.5987 fold
VEGFA fold change expressed as negative fold (down-regulation) ([1]; VEGFA mRNA): 1.67 fold
PAI-1 production [2]: significant increase in PAI-1 production
uPAR protein levels [3]: elevated
